Measured values reported in PMC6268888, “Novel Coumarin Derivatives Containing 1,2,4-Triazole, 4,5-Dicyanoimidazole and Purine Moieties: Synthesis and Evaluation of Their Cytostatic Activity” (Molecules, 2012).
“And” between values parts separate entries of the source, which are not always exact repeats. Equal entries are not always repeated. Where two headings read alike, the source gives them in different places.

Legend:
[1] = system: MCF-7 (breast epithelial adenocarcinoma, metastatic); experiment: MTT proliferation assay, MCF-7 cells; assay type: cell-based, human; details: read-out: IC50 (50% growth inhibition) MCF-7
Experimental: (§1) This study was set out to examine the anti-proliferative effects of coumarin derivates (3–18) on human tumor cell lines and normal (diploid) human fibroblasts.
(§2) Cell culturing: Human cell lines HeLa (cervical carcinoma), SW620 (colorectal adenocarcinoma, metastatic), MCF-7 (breast epithelial adenocarcinoma, metastatic), HepG2 (hepatocellular carcinoma) and BJ (normal diploid human fibroblasts) were cultured as monolayers and maintained in Dulbecco’s modified Eagle medium (DMEM) supplemented with 10% fetal bovine serum (FBS), 2 mM L-glutamine, 100 U/mL penicillin and 100 μg/mL streptomycin in a humidified atmosphere with 5% CO2 at 37 °C.
(§3) Proliferation assay: The cell lines were inoculated into a series of standard 96-well microtiter plates on day 0 at seeding density of 3,000–6,000 cells per well depending upon their specific doubling times. Freshly prepared dilutions of test compounds in culture medium in the concentration range 1 × 10^−8–1 × 10^−4 M were added to the microtiter plates, and the cells were grown for further 72 h. The solvent (DMSO) was also tested for its potential inhibitory activity by adjusting its concentration to the values used for the preparation of the working concentrations (DMSO concentration never exceeded 0.1%). After 72 h of incubation, the cell growth rate was evaluated by performing the MTT assay: experimentally determined absorbance values were transformed into the cell percentage growth (PG) using the formulas proposed by NIH and described previously. This method directly relies on control cells behaving normally at the day of assay commencement because it compares the growth of treated cells with that of untreated cells in control wells on the same plate. The results are therefore a percentile difference from the calculated expected value. […] If, however, all of the tested concentrations produce PGs exceeding the respective reference level of effect (e.g., PG value of 50) for a given cell line, the highest tested concentration is assigned as the default value (in the screening data report that default value is preceded by a “>” sign). Each test point was performed in quadruplicate in three individual experiments. The results were statistically analyzed (ANOVA, Tukey post-hoc test at p < 0.05).

[2] = system: HepG2 (hepatocellular carcinoma); experiment: MTT proliferation assay, HepG2 cells; assay type: cell-based, human; details: 72 h, read-out: IC50 (50% growth inhibition) HepG2
Experimental: as §1, §2, §3

[3] = system: HeLa (cervical carcinoma); experiment: MTT proliferation assay, HeLa cells; assay type: cell-based, human; details: 72 h, read-out: IC50 (50% growth inhibition) HeLa
Experimental: as §1, §2, §3

[4] = system: SW620 (colorectal adenocarcinoma, metastatic); experiment: MTT proliferation assay, SW620 cells; assay type: cell-based, human; details: read-out: IC50 (50% growth inhibition) SW620
Experimental: as §1, §2, §3

[5] = system: BJ (normal diploid human fibroblasts); experiment: MTT proliferation assay, BJ normal fibroblasts; assay type: cell-based; details: 72 h, read-out: IC50 (50% growth inhibition) BJ
Experimental: as §1, §2, §3

Molecule	IC50 ([1]; Homo sapiens, MCF7, 72 h) [µM]	IC50 ([2]; Homo sapiens) [µM]	IC50 ([3]; Homo sapiens, HeLa) [µM]	IC50 ([4]; Homo sapiens, SW-620, 72 h) [µM]	melting point [°C]	IC50 ([5]; Homo sapiens, Fibroblast) [µM]	IC50 ([1]; 72 h) [µM]	IC50 [2]	IC50 [3] [µM]	IC50 ([4]; 72 h)	IC50 [5] [µM]
COC(=O)c1ncn(Cc2cc(=O)oc3cc(OC)ccc23)n1 [Compound 5, Methyl 1-((7-Methoxy-2-oxo-2H-chromen-4-yl)methyl)-1,2,4-triazole-3-carboxylate]	> 100	> 100	> 100	> 100	234 to 237	> 100	–	–	–	–	–
COC(=O)c1ncn(Cc2cc(=O)oc3cc(O)ccc23)n1 [Compound 3, Methyl 1-((7-hydroxy-2-oxo-2H-chromen-4-yl)methyl)-1,2,4-triazole-3-carboxylate]	> 100	> 100	> 100	> 100	216 to 218	> 100	–	–	–	–	–
1-((7-Methoxy-2-oxo-2H-chromen-4-yl)methyl)-2-amino-6-chloropurine [Compound 12]	–	–	–	–	–	–	> 100	> 100 µM	> 100	> 100 µM	> 100
1-((7-Hydroxy-2-oxo-2H-chromen-4-yl)methyl)-2-aminopurine [Compound 11]	–	–	–	–	–	–	> 100	> 100 µM	> 100	> 100 µM	> 100
COc1ccc(C(CCO)Cn2cncn2)c(O)c1 (stereo not drawn) [Compound 16, 1-(4-hydroxy-2-(2-hydroxy-4-methoxyphenyl)butyl)-1,2,4-triazole]	> 100	> 100	> 100	> 100	–	> 100	–	–	–	–	–
COc1ccc2c(Cn3cnc(C(N)=O)n3)cc(=O)oc2c1 [Compound 6, 1-((7-Methoxy-2-oxo-2H-chromen-4-yl)methyl)-1,2,4-triazole-3-carboxamide]	> 100	> 100	35	> 100	–	> 100	–	–	35.5 ± 13.5	–	–
1-((7-Hydroxy-2-oxo-2H-chromen-4-yl)methyl)purine [Compound 9]	–	–	–	–	–	–	> 100	> 100 µM	> 100	> 100 µM	> 100
CCOC(=O)c1ncn(CC(CCO)c2ccc(OC)cc2O)n1 (stereo not drawn) [Compound 14, Ethyl 1-(4-hydroxy-2-(2-hydroxy-4-methoxyphenyl)butyl)-1,2,4-triazole-3-carboxylate]	> 100	> 100	> 100	> 100	–	> 100	–	–	–	–	–
NC(=O)c1ncn(Cc2cc(=O)oc3cc(O)ccc23)n1 [Compound 4, 1-((7-Hydroxy-2-oxo-2H-chromen-4-yl)methyl)-1,2,4-triazole-3-carboxamide]	> 100	> 100	> 100	> 100	–	> 100	–	–	–	–	–
1-(4-Hydroxy-2-(2-hydroxy-4-methoxyphenyl)butyl)guanine [Compound 18]	–	–	–	–	–	–	> 100	> 100 µM	> 100	> 100 µM	> 100
COc1ccc(C(CCO)Cn2cnc(CO)n2)c(O)c1 (stereo not drawn) [Compound 17, ethyl 1-(4-hydroxy-2-(2-hydroxy-4-methoxyphenyl)butyl)-1,2,4-triazole-3-hydroxymethyl]	> 100	> 100	> 100	> 100	–	> 100	–	–	–	–	–
COc1ccc(C(CCO)Cn2cnc(C(N)=O)n2)c(O)c1 (stereo not drawn) [Compound 15, 1-(4-Hydroxy-2-(2-hydroxy-4-methoxyphenyl)butyl)-1,2,4-triazole-3-carboxamide]	> 100	> 100	> 100	> 100	–	> 100	–	–	–	–	–
1-((7-Hydroxy-2-oxo-2H-chromen-4-yl)methyl)-2-amino-6-chloropurine [Compound 10]	–	–	–	–	–	–	> 100	25 µM and 25.6 µM	34 ± 8.4	35 µM and 35.4 µM	> 100
1-((7-Hydroxy-2-oxo-2H-chromen-4-yl)methyl)-6-chloropurine [Compound 8]	–	–	–	–	–	–	> 100	> 100 µM	> 100	> 100 µM	> 100
1-((7-Methoxy-2-oxo-2H-chromen-4-yl)methyl)guanine [Compound 13]	–	–	–	–	–	–	> 100	> 100 µM	> 100	> 100 µM	> 100
N#Cc1ncn(Cc2cc(=O)oc3cc(O)ccc23)c1C#N [Compound 7, 1-((7-Hydroxy-2-oxo-2H-chromen-4-yl)methyl)-4,5-dicyanoimidazole]	> 100	> 100	> 100	> 100	238 to 240	> 100	–	–	–	–	–
